{"source": "patent US20250136934A1", "about": "“PRODUCTION OF INDUCED MIDBRAIN DOPAMINERGIC PROGENITOR CELLS FROM PLURIPOTENT STEM CELLS” (NUWACELL BIOTECHNOLOGIES CO., LTD., priority 2023, published 2025)", "system": "FOXA2+ imDAP cells", "test": "FACS analysis of FOXA2 expression of imDAP cells derived from hiPSCs", "assay_type": "cell-based, human", "conditions": "4-step protocol, Day 16", "protocol": "• 1. Individualize and collect cells by either Accutase or TrypLE treatment. • 2. Wash cells with 1 ml PBS and pellet cells at 250×g for […]. • 3. Remove supernatant, add ˜200 μl of 4% PFA, mix and fix for 10 min at RT. • 4. Pellet cells at 350×g for 5 min. • 5. Wash cells by 1 ml of FACS buffer and pellet cells at 350×g for 5 min. • 6. Remove supernatant, add 200 μl/tube of FACS buffer/0.1% Triton X, mix for 10 min at RT. • 7. Wash cells by 1 ml of FACS buffer and pellet cells at 350×g for 5 min. • 8. Remove supernatant, add 200 μl/tube of primary antibody diluted in FACS buffer, mix gently, and incubate for 30 min at RT. • 9. Wash cells by 1 ml of FACS buffer and pellet cells at 350×g for 5 min. • 10. Remove supernatant, and add 200 μl of secondary antibody diluted in FACS buffer, mix gently, and incubate for 30 min at RT. • 11. Wash cells by 1 ml of FACS buffer and pellet cells at 300×g for 5 min. • 12. Remove supernatant, add 200 μl of FACS buffer, and run samples on the flow cytometer.\nOn Day-1, EB formation (Stage 1) was carried out by dissociating hiPSCs (Nuwacell) to form a single-cell suspension and resuspending it in Epic medium (Nuwacell, #RP01001) containing 10 μM Blebbistatin (MCE, #HY-13441) in T25 flasks on a belly dancer and culturing the cells overnight. On Day 0, ventral midbrain floor plate differentiation (Stage 2) was initiated by changing the medium to a Stage 2-1 differentiation medium containing DMEM: F12/B27 (plus Vitamin A) (98:2, v/v) as basal medium and supplemented with 0.2 μM LDN193189, 10 μM SB431542, 1 μg/mL SHH C24II and 1.25 μM CHIR99021 and culturing the cells for 3 Days. From Day 3, the basal medium was changed to DMEM: F12/B27 (minus Vitamin A) (98:2, v/v), and CHIR concentration was boosted to 7.5 μM until Day 10 (Stage 2-2). SB431542 was withdrawn on Day 4, and SHH C24II was withdrawn on Day 8. From Day 10 (Stage 2-3), the medium was changed to a differentiation medium containing DMEM: F12/B27 (minus Vitamin A) (98:2, v/v) as basal medium and supplemented with 0.2 μM LDN193189 and 3 μM CHIR99021. During the cell culture, each of the differentiation media was replaced every day. On Day 16 (at the end of S2-3), EBs were dissociated for single cells and collected for analysis. The cells of each group were stained with FOXA2-PE antibody (BD, #561689), the percentage of FOXA2+ imDAP cells were analyzed by flow cytometry (FIG. 5). The above experiment was repeated for three times and the derived imDAP cells were named as Lot1, Lot2 and Lot3, respectively.\nOn Day-1, EB formation (Stage 1) was carried out by dissociating hiPSCs (Nuwacell) to form a single-cell suspension and resuspending it in Epic medium (Nuwacell, #RP01001) containing 10 μM Blebbistatin (MCE, #HY-13441) in T25 flasks on a belly dancer and culturing the cells overnight. On Day 0, ventral midbrain floor plate differentiation (Stage 2) was initiated by changing the medium to a Stage 2-1 differentiation medium containing DMEM: F12/B27 (plus Vitamin A) (98:2, v/v) as basal medium and supplemented with 0.2 μM LDN193189, 20 μM SB431542, 1.2 μM CHIR99021, and 1 μg/mL SHH C24II or the combination of SHH agonists including 500 ng/mL SHH C24II, 2 μM Purmorphamine and 10 nM SAG and culturing the cells for 3 days. From Day 3, the basal medium was changed to DMEM: F12/B27 (minus Vitamin A) (98:2, v/v). Cells were exposed to Boost-CHIR concentration of 7.5 μM starting from Day 4 to Day 6 (Stage 2-2), followed by a low CHIR concentration of 1.2 μM (Stage 2-3) until Day 10. […]"}
{"smiles": "Cc1cnc(-c2cnc(NCCNc3ccc(C#N)cn3)nc2-c2ccc(Cl)cc2Cl)[nH]1", "note": "[CHIR, CHIR99021]", "values": [{"measurement": "percentage of cells positive for FOXA2", "setting": "low CHIR concentration 1.2 μM in Stage 2-3 (Day 8 to Day 10)", "value": 91.02, "unit": "%"}, {"measurement": "percentage of cells positive for FOXA2", "setting": "low CHIR concentration 1.4 μM in Stage 2-3 (Day 8 to Day 10)", "value": 81.89, "unit": "%"}, {"measurement": "percentage of cells positive for FOXA2", "setting": "low CHIR concentration 1.6 μM in Stage 2-3 (Day 8 to Day 10)", "value": 85.96, "unit": "%"}]}
